Data reported in ChEMBL document CHEMBL1128637, “Enantioselective synthesis of inositols as intermediates for the preparation of deoxy-inositol phosphates from D-galactose” (Bioorg Med Chem Lett, 1995).

target: T1, Type 1 InsP3 receptor isoform S2 (Sus scrofa, UniProt P79248); test: Binding affinity was determined by its ability to displace specifically bound […] from purified porcine cerebellum membrane.; type: tissue-based
T1 sequence (P79248 whole entry, canonical isoform): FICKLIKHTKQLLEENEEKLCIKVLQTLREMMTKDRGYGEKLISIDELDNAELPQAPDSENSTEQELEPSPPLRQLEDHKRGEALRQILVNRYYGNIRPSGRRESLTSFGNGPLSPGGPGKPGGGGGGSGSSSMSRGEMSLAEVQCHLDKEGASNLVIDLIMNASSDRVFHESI

Row | SMILES | IC50
1 | COC1OC(CBr)C2OC3(CCCCC3)OC2C1OCc1ccccc1 (stereo not drawn) | Not Active
2 | COC1OC(CBr)C2OC3(CCCCC3)OC2C1O (stereo not drawn) | Not Active
3 | OC1CC(O)C2OC3(CCCCC3)OC2C1OCc1ccccc1 (stereo not drawn) | Not Active
4 | CO[C@@H]1O[C@H](CO)[C@H](O)[C@H](O)[C@H]1O | Not Active
5 | OC1CC(O)C2OC3(CCCCC3)OC2C1O (stereo not drawn) | Not Active
6 | C=C1OC(OC)C(OCc2ccccc2)C2OC3(CCCCC3)OC12 (stereo not drawn) | Not Active
7 | O=C1CC(O)C(OCc2ccccc2)C2OC3(CCCCC3)OC12 (stereo not drawn) | Not Active

Second part, the compound after the results:

Row | IC50 | SMILES
8 | Not Active | CO[C@@H]1O[C@@H](CO)[C@@H]2OC3(CCCCC3)O[C@@H]2[C@@H]1O
9 | Not Active | O=P(OCc1ccccc1)(OCc1ccccc1)OC1CC(OP(=O)(OCc2ccccc2)OCc2ccccc2)C2OC3(CCCCC3)OC2C1OCc1ccccc1 (stereo not drawn)
10 | Not Active | O=P(OCc1ccccc1)(OCc1ccccc1)OC1CC(OP(=O)(OCc2ccccc2)OCc2ccccc2)C(OP(=O)(OCc2ccccc2)OCc2ccccc2)C2OC3(CCCCC3)OC12 (stereo not drawn)
11 | Not Active | O[C@H]1[C@@H](O)[C@H](O)C[C@@H](O)[C@H]1O

target: T1, Type 1 InsP3 receptor isoform S2; test: Binding affinity of compound was determined by its ability to displace specifically bound […] from purified porcine cerebellum membrane; type: tissue-based

Row | IC50 | SMILES
12 | 0.02 µM | O=P(O)(O)O[C@@H]1[C@H](O)[C@H](O)[C@@H](OP(=O)(O)O)[C@H](OP(=O)(O)O)[C@H]1O [INS(1,4,5)P3]
13 | 1.5 µM | O=P(O)(O)OC1CC(OP(=O)(O)O)C(OP(=O)(O)O)C(O)C1O (stereo not drawn)
